Our source for the Ki values is patent publication US8846719B2, “Isoxazolo-pyridine derivatives” (Roche Palo Alto LLC, priority 2007, dated 2014).

Molecules are shown by their SMILES. pKi: −log10 of the molar value.

In the experiment the target is human GABA A receptor α5β3γ2 (Homo sapiens (Human), UniProt P18507+P31644). Briefly: [3H]flumazenil competition binding assay, human GABA A α5β3γ2 receptors expressed in HEK293 cells. Particulars: human receptor; displacement of [3H]flumazenil (0.5 nM); means of two determinations; read-out: hKi GABAAa5. The protocol:
The affinity of compounds at GABA A receptor subtypes was measured by competition for [3H]flumazenil (85 Ci/mmol; Roche) binding to HEK293 cells expressing rat (stably transfected) or human (transiently transfected) receptors of composition α1β3γ2, α2β3γ2, α3β3γ2 and α5β3γ2.
Cell pellets were suspended in Krebs-tris buffer (4.8 mM KCl, 1.2 mM CaCl2, 1.2 mM MgCl2, 120 mM NaCl, 15 mM Tris; pH 7.5; binding assay buffer), homogenized by polytron for ca. 20 sec on ice and centrifuged for 60 min at 4° C. (50000 g; Sorvall, rotor: SM24=20000 rpm). The cell pellets were resuspended in Krebs-tris buffer and homogenized by polytron for ca. 15 sec on ice. Protein was measured (Bradford method, Bio-Rad) and aliquots of 1 mL were prepared and stored at −80° C.
Assays were incubated to equilibrium for 1 hour at 4° C. and harvested onto GF/C uni-filters (Packard) by filtration using a Packard harvester and washing with ice-cold wash buffer (50 mM Tris; pH 7.5). After drying, filter-retained radioactivity was detected by liquid scintillation counting. Ki values were calculated using Excel-Fit (Microsoft) and are the means of two determinations.
For orientation: In a radioligand displacement assay an active substance lowers the binding of a labelled ligand.
Consider `Cc1onc(-c2ccccc2)c1COc1ccc(C(=O)NC[C@@H](C)O)cn1` (racemic) [Example 14, (R,S)—N-(2-Hydroxy-propyl)-6-(5-methyl-3-phenyl-isoxazol-4-ylmethoxy)-nicotinamide], for which the pKi is 8.60. With `Cc1onc(-c2ccccc2)c1COc1ccc(C(=O)N[C@@H]2CCOC(C)(C)C2)cn1` (racemic) [Example 32, (R,S)—N-(2,2-Dimethyl-tetrahydro-pyran-4-yl)-6-(5-methyl-3-phenyl-isoxazol-4-ylmethoxy)-nicotinamide], the pKi was 8.10. `Cc1onc(-c2ccccc2)c1COc1ccc(C(=O)N[C@H]2CCCC[C@H]2O)cn1` (racemic) [Example 199, N-((1S,2R) and (1R,2S)-2-Hydroxy-cyclohexyl)-6-(5-methyl-3-phenyl-isoxazol-4-ylmethoxy)-nicotinamide]: the pKi was 8.55. With `Cc1onc(-c2ccccc2)c1COc1ccc(C(=O)N[C@@H]2CCCC[C@@H]2O)cn1` (single isomer, unassigned) [Example 203, N-((1R,2S)-2-Hydroxy-cyclohexyl)-6-(5-methyl-3-phenyl-isoxazol-4-ylmethoxy)-nicotinamide or N-((1S,2R)-2-Hydroxy-cyclohexyl)-6-(5-methyl-3-phenyl-isoxazol-4-ylmethoxy)-nicotinamide], the pKi is 8.32. As for `Cc1onc(-c2ccccc2)c1COc1ccc(C(=O)N[C@H]2CCCC[C@H]2O)cn1` (single isomer, unassigned) [Example 204, N-((1S,2R)-2-Hydroxy-cyclohexyl)-6-(5-methyl-3-phenyl-isoxazol-4-ylmethoxy)-nicotinamide or N-((1R,2S)-2-Hydroxy-cyclohexyl)-6-(5-methyl-3-phenyl-isoxazol-4-ylmethoxy)-nicotinamide], the pKi was 8.36. Take `Cc1onc(-c2ccccc2)c1COc1ccc(C(=O)N[C@@H]2CCC[C@@H]2O)cn1` (single isomer, unassigned) [Example 210, N-((1R,2S)-2-Hydroxy-cyclopentyl)-6-(5-methyl-3-phenyl-isoxazol-4-ylmethoxy)-nicotinamide or N-((1S,2R)-2-hydroxy-cyclopentyl)-6-(5-methyl-3-phenyl-isoxazol-4-ylmethoxy)-nicotinamide]: the pKi was 8.30. Regarding `Cc1onc(-c2ccccc2)c1COc1ccc(C(=O)N[C@H]2CCC[C@H]2O)cn1` (single isomer, unassigned) [Example 211, N-((1S,2R)-2-Hydroxy-cyclopentyl)-6-(5-methyl-3-phenyl-isoxazol-4-ylmethoxy)-nicotinamide or N-((1R,2S)-2-hydroxy-cyclopentyl)-6-(5-methyl-3-phenyl-isoxazol-4-ylmethoxy)-nicotinamide], the pKi is 8.57. Regarding `Cc1onc(-c2ccccc2)c1COc1ccc(C(=O)N[C@H]2CCC[C@@H]2O)cn1` (single isomer, unassigned) [Example 212, N-((1S,2S)-2-Hydroxy-cyclopentyl)-6-(5-methyl-3-phenyl-isoxazol-4-ylmethoxy)-nicotinamide or N-((1R,2R)-2-hydroxy-cyclopentyl)-6-(5-methyl-3-phenyl-isoxazol-4-ylmethoxy)-nicotinamide], the pKi was 8.70. For the compound `Cc1onc(-c2ccccc2)c1COc1ccc(C(=O)N[C@@H]2CCC[C@H]2O)cn1` (single isomer, unassigned) [Example 213, N-((1R,2R)-2-Hydroxy-cyclopentyl)-6-(5-methyl-3-phenyl-isoxazol-4-ylmethoxy)-nicotinamide or N-((1S,2S)-2-hydroxy-cyclopentyl)-6-(5-methyl-3-phenyl-isoxazol-4-ylmethoxy)-nicotinamide], the pKi is 8.80. For the compound `Cc1onc(-c2ccc(Cl)cc2)c1COc1ccc(C(=O)N[C@@H]2CCC[C@H]2O)cn1` (single isomer, unassigned) [Example 259, 6-[3-(4-Chloro-phenyl)-5-methyl-isoxazol-4-ylmethoxy]-N-((1R,2R)-2-hydroxy-cyclopentyl)-nicotinamide or 6-[3-(4-chloro-phenyl)-5-methyl-isoxazol-4-ylmethoxy]-N-((1S,2S)-2-hydroxy-cyclopentyl)-nicotinamide], the pKi was 9.15.

For the compound `Cc1onc(-c2ccc(Cl)cc2)c1COc1ccc(C(=O)N[C@H]2CCC[C@@H]2O)cn1` (single isomer, unassigned) [Example 260, 6-[3-(4-Chloro-phenyl)-5-methyl-isoxazol-4-ylmethoxy]-N-((1S,2S)-2-hydroxy-cyclopentyl)-nicotinamide or 6-[3-(4-chloro-phenyl)-5-methyl-isoxazol-4-ylmethoxy]-N-((1R,2R)-2-hydroxy-cyclopentyl)-nicotinamide], the pKi was 9.30. On to `O=C(N[C@@H]1CCC[C@H]1O)c1ccc(OCc2conc2-c2ccc(F)cc2)nc1` (single isomer, unassigned) [Example 332, 6-[3-(4-Fluoro-phenyl)-isoxazol-4-ylmethoxy]-N-((1R,2R)-2-hydroxy-cyclopentyl)-nicotinamide or 6-[3-(4-fluoro-phenyl)-isoxazol-4-ylmethoxy]-N-((1S,2S)-2-hydroxy-cyclopentyl)-nicotinamide], for which the pKi is 7.65. In the case of `O=C(N[C@@H]1CCC[C@H]1O)c1ccc(OCc2conc2-c2ccc(F)cc2)nc1` (single isomer, unassigned) [Example 341, 6-[3-(4-Fluoro-phenyl)-isoxazol-4-ylmethoxy]-N-((1R,2R)-2-hydroxy-cydopentyl)-nicotinamide or 6-[3-(4-fluoro-phenyl)-isoxazol-4-ylmethoxy]-N-((1S,2S)-2-hydroxy-cydopentyl)-nicotinamide], the pKi is 7.53. Take `Cc1onc(-c2ccccc2)c1COc1ccccn1` [Example 1, 2-(5-Methyl-3-phenyl-isoxazol-4-ylmethoxy)-pyridine]: the pKi was 7.44.

Consider `Cc1cccc(OCc2c(-c3ccccc3)noc2C)n1` [Example 2, 2-Methyl-6-(5-methyl-3-phenyl-isoxazol-4-ylmethoxy)-pyridine], for which the pKi is 8.51. `Cc1onc(-c2ccccc2)c1COc1ccc(Br)cn1` [Example 3, 5-Bromo-2-(5-methyl-3-phenyl-isoxazol-4-ylmethoxy)-pyridine]: the pKi is 7.51.

Take `Cc1onc(-c2ccccc2)c1COc1ccc(C(F)(F)F)cn1` [Example 4, 2-(5-Methyl-3-phenyl-isoxazol-4-ylmethoxy)-5-trifluoromethylpyridine]: the pKi is 7.22. In the case of `Cc1onc(-c2ccccc2)c1COc1ccc(C#N)cn1` [Example 5, 6-(5-Methyl-3-phenyl-isoxazol-4-ylmethoxy)-nicotinonitrile], the pKi is 7.88. With `Cc1onc(-c2ccccc2)c1COc1ccc([N+](=O)[O-])cn1` [Example 6, 2-(5-Methyl-3-phenyl-isoxazol-4-ylmethoxy)-5-nitro-pyridine], the pKi was 7.65. Next, `COC(=O)c1ccc(OCc2c(-c3ccccc3)noc2C)nc1` [Example 7, 6-(5-Methyl-3-phenyl-isoxazol-4-ylmethoxy)-nicotinic acid methyl ester]: 7.85. On to `CNC(=O)c1ccc(OCc2c(-c3ccccc3)noc2C)nc1` [Example 8, N-Methyl-6-(5-methyl-3-phenyl-isoxazol-4-ylmethoxy)-nicotinamide], for which the pKi was 8.37.

`CCNC(=O)c1ccc(OCc2c(-c3ccccc3)noc2C)nc1` [Example 9, N-Ethyl-6-(5-methyl-3-phenyl-isoxazol-4-ylmethoxy)-nicotinamide]: the pKi was 8.54. For the compound `Cc1onc(-c2ccccc2)c1COc1ccc(C(=O)NCCF)cn1` [Example 10, N-(2-Fluoro-ethyl)-6-(5-methyl-3-phenyl-isoxazol-4-ylmethoxy)-nicotinamide], the pKi was 8.36. `Cc1onc(-c2ccccc2)c1COc1ccc(C(=O)NCC(F)F)cn1` [Example 11, N-(2,2-Difluoro-ethyl)-6-(5-methyl-3-phenyl-isoxazol-4-ylmethoxy)-nicotinamide]: the pKi is 8.70. As for `Cc1onc(-c2ccccc2)c1COc1ccc(C(=O)NCC(F)(F)F)cn1` [Example 12, 6-(5-Methyl-3-phenyl-isoxazol-4-ylmethoxy)-N-(2,2,2-trifluoro-ethyl)-nicotinamide], the pKi is 8.66. With `Cc1onc(-c2ccccc2)c1COc1ccc(C(=O)NCCO)cn1` [Example 13, N-(2-Hydroxy-ethyl)-6-(5-methyl-3-phenyl-isoxazol-4-ylmethoxy)-nicotinamide], the pKi is 8.59. With `COCCCNC(=O)c1ccc(OCc2c(-c3ccccc3)noc2C)nc1` [Example 15, N-(3-Methoxy-propyl)-6-(5-methyl-3-phenyl-isoxazol-4-ylmethoxy)-nicotinamide], the pKi is 8.28. As for `Cc1onc(-c2ccccc2)c1COc1ccc(C(=O)NCC2CC2)cn1` [Example 16, N-Cyclopropylmethyl-6-(5-methyl-3-phenyl-isoxazol-4-ylmethoxy)-nicotinamide], the pKi was 8.41. In the case of `CCC(CC)CNC(=O)c1ccc(OCc2c(-c3ccccc3)noc2C)nc1` [Example 17, N-(2-Ethyl-butyl)-6-(5-methyl-3-phenyl-isoxazol-4-ylmethoxy)-nicotinamide], the pKi was 8.11. As to `Cc1onc(-c2ccccc2)c1COc1ccc(C(=O)NC[C@H]2CC(=O)NO2)cn1` [Example 18], the pKi is 7.71.
